From US9969742B2, “Imidazotriazinone compounds” (Ironwood Pharmaceuticals, Inc., priority 2012, dated 2018)
Read-outs that look alike come from different tables or passages of the source.

Key:
Assay type in all cases: biochemical
PDE1B = target: T1, PDE1B (Homo sapiens, UniProt Q01064); assay: Phosphodiesterase enzyme screening assay, PDE1B; conditions: ratio of IC50 values
T1 construct: purchased Reaction Biology Corporation, Malvern, Pa
Method in brief: (§1)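 Enzyme activity is measured as conversion of fluorescent cGMP (4.0 μM) to 5′-GMP after 1 h at R.T. in pH 7.5 HEPES/MgCl2/DTT buffer. Product is separated from substrate by microfluidic mobility shift, and inhibition is derived by comparison with control wells.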

PDE9A2 = target: T2, PDE9A2 (Homo sapiens, UniProt O76083); assay: Phosphodiesterase enzyme screening assay, PDE9A2; conditions: read-out: Band (PDE9A2 IC50)
T2 construct: purchased Reaction Biology Corporation, Malvern, Pa
T2 sequence (O76083 1-533 isoform O76083-2): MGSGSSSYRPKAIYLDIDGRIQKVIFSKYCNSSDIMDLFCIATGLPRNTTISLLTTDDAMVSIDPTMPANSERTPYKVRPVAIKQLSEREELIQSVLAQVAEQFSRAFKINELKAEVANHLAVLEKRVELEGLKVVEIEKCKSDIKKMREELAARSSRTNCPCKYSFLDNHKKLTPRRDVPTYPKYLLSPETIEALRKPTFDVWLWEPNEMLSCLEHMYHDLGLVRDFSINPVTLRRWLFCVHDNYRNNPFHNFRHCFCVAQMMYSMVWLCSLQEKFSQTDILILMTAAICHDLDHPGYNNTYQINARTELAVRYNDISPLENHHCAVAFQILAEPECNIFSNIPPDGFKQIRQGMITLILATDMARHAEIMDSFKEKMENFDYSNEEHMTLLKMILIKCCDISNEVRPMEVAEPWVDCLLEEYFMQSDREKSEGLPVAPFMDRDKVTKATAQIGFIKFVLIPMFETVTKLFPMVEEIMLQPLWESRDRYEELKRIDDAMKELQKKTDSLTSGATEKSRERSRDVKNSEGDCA
Method in brief: as §1

PDE1A = target: T3, PDE1A (Homo sapiens, UniProt P54750); assay: Phosphodiesterase enzyme screening assay, PDE1A; conditions: ratio of IC50 values
T3 construct: purchased Reaction Biology Corporation, Malvern, Pa
T3 sequence (P54750 whole entry): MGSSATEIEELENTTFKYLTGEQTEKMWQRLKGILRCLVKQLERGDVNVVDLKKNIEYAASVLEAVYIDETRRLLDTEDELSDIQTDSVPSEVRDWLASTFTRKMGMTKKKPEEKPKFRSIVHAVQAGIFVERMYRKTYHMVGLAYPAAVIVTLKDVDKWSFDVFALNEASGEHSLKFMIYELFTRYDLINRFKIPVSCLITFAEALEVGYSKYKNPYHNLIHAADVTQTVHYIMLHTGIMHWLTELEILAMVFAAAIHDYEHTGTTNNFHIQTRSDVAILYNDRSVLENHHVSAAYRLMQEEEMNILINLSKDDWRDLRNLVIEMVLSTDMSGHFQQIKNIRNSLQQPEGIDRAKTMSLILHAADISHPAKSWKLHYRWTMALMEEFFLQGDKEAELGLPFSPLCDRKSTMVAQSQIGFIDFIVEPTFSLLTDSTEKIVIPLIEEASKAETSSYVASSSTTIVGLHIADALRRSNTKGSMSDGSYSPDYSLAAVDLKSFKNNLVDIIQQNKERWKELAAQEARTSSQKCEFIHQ
Method in brief: as §1

[1] = Table 1, value greater than 1 indicates greater selectivity for PDE9A2
[2] = Table 1, 10 concentrations, 4.0 μM cGMP substrate, 1 hour at R.T.
[3] = value greater than 1 indicates greater selectivity for PDE9A2

T1 sequence (Q01064 whole entry): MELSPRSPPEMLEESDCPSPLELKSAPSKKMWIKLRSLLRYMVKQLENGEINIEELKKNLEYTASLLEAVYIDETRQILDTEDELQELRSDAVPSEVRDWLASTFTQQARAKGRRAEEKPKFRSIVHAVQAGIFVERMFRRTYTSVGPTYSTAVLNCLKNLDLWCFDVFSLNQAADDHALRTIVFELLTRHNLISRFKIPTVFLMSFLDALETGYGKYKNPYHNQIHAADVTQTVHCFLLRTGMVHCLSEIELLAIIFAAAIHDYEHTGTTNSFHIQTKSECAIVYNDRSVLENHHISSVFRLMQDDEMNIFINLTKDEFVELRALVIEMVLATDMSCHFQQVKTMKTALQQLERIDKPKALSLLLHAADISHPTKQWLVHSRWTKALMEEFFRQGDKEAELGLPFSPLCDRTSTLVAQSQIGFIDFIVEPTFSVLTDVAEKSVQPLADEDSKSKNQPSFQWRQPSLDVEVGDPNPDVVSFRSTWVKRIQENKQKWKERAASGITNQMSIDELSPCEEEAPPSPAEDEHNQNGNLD

| SMILES | PDE1B selectivity (versus PDE9A2) (PDE1B; [1]) | IC50 (PDE9A2; [2]) | PDE1A selectivity (versus PDE9A2) (PDE1A; [1]) | further results |
| --- | --- | --- | --- | --- |
| Cc1ccncc1-c1ncc2c(=O)[nH]c(C3CN(Cc4ncccn4)CC3C)nn12 (single isomer, unassigned; (+)) [(+)-2-((3,4-trans)-4-methyl-1-(pyrimidin-2-ylmethyl)pyrrolidin-3-yl)-7-(4-methylpyridin-3-yl)imidazo[5,1-f][1,2,4]triazin-4(3H)-one] | – | – | – | PDE1B selectivity (versus PDE9A2) (PDE1B; PDE1B versus PDE9A2, value greater than 1 indicates greater selectivity for PDE9A2): 127; IC50 (PDE9A2): < 1 µM; PDE1A selectivity (versus PDE9A2) (PDE1A; PDE1A versus PDE9A2, value greater than 1 indicates greater selectivity for PDE9A2): 85 |
| Cc1ccccc1-c1ncc2c(=O)[nH]c(C3CN(Cc4ncccn4)CC3C)nn12 (single isomer, unassigned; (+)) [(+)-2-((3,4-trans)-4-methyl-1-(pyrimidin-2-ylmethyl)pyrrolidin-3-yl)-7-(o-tolyl)imidazo[5,1-f][1,2,4]triazin-4(3H)-one] | 119 | < 1 µM | 84 | – |
| CC1CN(Cc2ccncn2)CC1c1nn2c(C3CCOCC3)ncc2c(=O)[nH]1 (single isomer, unassigned; (+)) [(+)-2-((3,4-trans)-4-methyl-1-(pyrimidin-4-ylmethyl)pyrrolidin-3-yl)-7-(tetrahydro-2H-pyran-4-yl)imidazo[5,1-f][1,2,4]triazin-4(3H)-one] | 174 | < 1 µM | 136 | – |
| CC1CN(Cc2ccc3ncncc3c2)CC1c1nn2c(C3CCOCC3)ncc2c(=O)[nH]1 (single isomer, unassigned; (+)) [(+)-2-((3,4-trans)-4-methyl-1-(quinazolin-6-ylmethyl)pyrrolidin-3-yl)-7-(tetrahydro-2H-pyran-4-yl)imidazo[5,1-f][1,2,4]triazin-4(3H)-one] | 1067 | < 1 µM | 890 | – |
| CC1CN(Cc2ccnc3ccccc23)CC1c1nn2c(C3CCOCC3)ncc2c(=O)[nH]1 (single isomer, unassigned; (+)) [(+)-2-((3,4-trans)-4-methyl-1-(quinolin-4-ylmethyl)pyrrolidin-3-yl)-7-(tetrahydro-2H-pyran-4-yl)imidazo[5,1-f][1,2,4]triazin-4(3H)-one] | 987 | < 1 µM | 471 | – |
| CC1CN(Cc2ccc3ncccc3c2)CC1c1nn2c(C3CCOCC3)ncc2c(=O)[nH]1 (single isomer, unassigned; (+)) [(+)-2-((3,4-trans)-4-methyl-1-(quinolin-6-ylmethyl)pyrrolidin-3-yl)-7-(tetrahydro-2H-pyran-4-yl)imidazo[5,1-f][1,2,4]triazin-4(3H)-one] | 1525 | < 1 µM | 520 | – |
| CC1CN(Cc2cccc3cccnc23)CC1c1nn2c(C3CCOCC3)ncc2c(=O)[nH]1 (single isomer, unassigned; (+)) [(+)-2-((3,4-trans)-4-methyl-1-(quinolin-8-ylmethyl)pyrrolidin-3-yl)-7-(tetrahydro-2H-pyran-4-yl)imidazo[5,1-f][1,2,4]triazin-4(3H)-one] | – | – | – | PDE1B selectivity (versus PDE9A2) (PDE1B; PDE1B versus PDE9A2, value greater than 1 = greater selectivity for PDE9A2): 673; IC50 (PDE9A2; Table 3, 4.0 μM cGMP substrate, 1 hour at R.T.): < 1 µM; PDE1A selectivity (versus PDE9A2) (PDE1A; PDE1A versus PDE9A2, value greater than 1 = greater selectivity for PDE9A2): 647 |
| CC1CN(Cc2cnc3ccccc3n2)CC1c1nn2c(C3CCOCC3)ncc2c(=O)[nH]1 (single isomer, unassigned; (+)) [(+)-2-((3,4-trans)-4-methyl-1-(quinoxalin-2-ylmethyl)pyrrolidin-3-yl)-7-(tetrahydro-2H-pyran-4-yl)imidazo[5,1-f][1,2,4]triazin-4(3H)-one] | 1130 | < 1 µM | 453 | – |
| CC1CN(Cc2nccs2)CC1c1nn2c(C3CCOCC3)ncc2c(=O)[nH]1 (single isomer, unassigned; (+)) [(+)-2-((3,4-trans)-4-methyl-1-(thiazol-2-ylmethyl)pyrrolidin-3-yl)-7-(tetrahydro-2H-pyran-4-yl)imidazo[5,1-f][1,2,4]triazin-4(3H)-one] | – | – | – | PDE1B selectivity (versus PDE9A2) (PDE1B; [3]): 147; IC50 (PDE9A2): < 1 µM; PDE1A selectivity (versus PDE9A2) (PDE1A; [3]): 150 |
